Assay results reported in article PMC12261321, “Inhibitors of the Bacterioferritin Ferredoxin Complex Dysregulate Iron Homeostasis and Kill and Biofilm-Embedded Cells” (ACS Infectious Diseases, 2025).
Converted amounts (≈) assume the structure as drawn.

Assays:
[1] = system: A. baumannii ATCC 19606; experiment: MIC, broth microdilution in M63 media; format: cell-based
Procedure: (§1) Measurement of Minimum Inhibitory Concentrations (MIC). The MIC of compounds and select ed antibiotics against three strains of A. baumannii (5075, ATCC 17988, and ATCC 19606) were determined via the broth microdilution method according to Clinical and Laboratory Standard Instit ute (CLSI) guidelines,15 but culturing […]
(§2) To establish a 2-fold dilution series of compound, 985 μ L of diluted cells was mixed with 15 μ L of compound […]
(§3) dissolved in DMSO, such that the resultant solution had the highest concentration of compound or antibiotic tested and 1.5% DMSO. To carry out the serial dilution from the highest compound concentration, a 150 μ L solution of higher concentration compound or antibiotic was mixed with 150 μ L of cell suspension containing 1.5% DMSO in the wells of a 96 well plate.
(§4) Th e 96 well plate was in cubated for 20 hat 35 °C with continuous orbital shaking (205 cpm) in an Epoch2 microplate reader (BioTek), monitoring the growth by […]
(§5) following the OD600. […]
(§6) FFFFFF = MMMMMMAA iiii ccllccbbiiiicccciilliiMMMMMMAA+ MMMMMMBB iiii ccllccbbiiiicccciilliiMMMMMMBB S2 Time Kill Assays. Time-kill assays were performed with A. baumannii 507 5 by the broth macro- dilution method in M63- medium containing 1.5% DMSO. An overnight culture was diluted to approximately 5 x10^5 CFU/mL in fresh M63 media. The test solutions were prepared by adding compound (KM-5- 35, or KM-5- 25) dissolved in DMSO to 5 mL of diluted cell suspension to yield a solution of the desired compound concentration and 1.5% DMSO, or by the addition of antibiotic dissolved in water and a small volume of DMSO to produce the desired

[2] = system: A. baumannii 5075; experiment: MIC, broth microdilution in M63 media; format: cell-based
Procedure: as §1, §2, §3, §4, §5, §6

[3] = system: A. baumannii ATCC 17978; experiment: MIC, broth microdilution in M63 media; format: cell-based
Procedure: as §1, §2, §3, §4, §5, §6

[4] = system: P. aeruginosa PAO1; experiment: Half maximal inhibitory concentration (IC50), planktonic growth (CFU/mL); format: cell-based; conditions: M63 media, 18 h
Procedure: Measurement of Half Maximal Inhibitory Concentration (IC50). IC50 values were determined as reported earlier13 with some modifications. Compound stock solutions in DMSO (100 mM and 10 mM) were prepared from powd er. To prep are the cell susp ensions utilized in the measu rements, starter cultures o f P. aeru ginosa wer e diluted to an optical density at 600 nm (OD600) = 0.005 in fresh LB media (5 mL) and then cultured at 37°C and 220 rpm for 4 h prior to diluting to an OD600 = 0.0001 in M63. A small volume of compound stock solution w as further diluted in DMSO to 30 µL and then diluted in M63 cell suspension to a final volume of 2.0 mL. The resultant solution was placed in a well of a 96-well plate and then serially 2-fold diluted in M63 cell suspension to produce 6 distinct com pound concent rations, each with 1.5% DMSO. Th e plate was co ver ed and incubated for 18 h at 35 °C in a Synergy H1 plate reader (Biotek). The resultant cell cultures were serially diluted in PBS and then plated on PI Agar plates (PIA; BD biosciences) for counting viable cells (CFU/mL). The % growth was calculated from the ratio CFU/mL(t reat ed )/CFU/mL(untreated control). To calculate the IC50 values, the % growth was plotted as a function of compound concentration expressed as log[compound] ( µM), and fitted to equation S1 describing the sigmoid- shaped response pattern, 14 where b is the slope factor, max is the upper asymptote (plateau), and min is the lower asymptote. IC 50 values are the average and standard deviation from three independent experiments , each conducted with thr ee techni cal replicates.

[5] = target: T1, recombinant Pa BfrB (Pseudomonas aeruginosa, UniProt Q9HY79); experiment: Dissociation constant (Kd), fluorescence quenching titration of apo Pa BfrB; format: binding, P. aeruginosa
T1 construct: made in house; host or cells: E. coli
Procedure: Measurement of Dissociation Constant (Kd) R ecombinant Pa BfrB was expressed in E. coli and purified as previously reported.19 Apo-BfrB (devoid of heme) was utilized for the measurements to prevent heme-driven fluorescence quenching. A 0.5 mL solution contai ning 0.01 µM apo Pa-BfrB in PBS (pH = 7.4) containing0.5% DMSO was plac ed into a 1 cm quartz cuvette wh ere it was titrated with aliq uots of compound dissolved in a 50% (v/v) PBS/DMSO solution. The fluorescence quenching brought by the addition of each aliquot was monitored with the aid of an Agilent Cary Fluorometer , with excitation at 280 nm, emission at 320- 470 nm, 10 x10 nm slit width, and an average of 5 scans per spectrum. Th e binding assay included at least 8 aliquots spanning from ~ 0.1 […]
A control titration was carried out by titrati ng compound into PBS buffer. The Kd was cal culated by fitting the data to equation S4, w here Fb is the fraction bound and Fmax is the fraction bound at saturating compound concentration.
FFbb = FFmmmmmm ? [ccccmmccccccmmcc ]? (S4) […]

[6] = Acinetobacter baumannii, ATCC19606, 20 h
[7] = Acinetobacter baumannii, 5075, 20 h
[8] = Acinetobacter baumannii, ATCC17978, 20 h
[9] = Pseudomonas aeruginosa, PAO1, planktonic cells

T1 sequence (Q9HY79 whole entry): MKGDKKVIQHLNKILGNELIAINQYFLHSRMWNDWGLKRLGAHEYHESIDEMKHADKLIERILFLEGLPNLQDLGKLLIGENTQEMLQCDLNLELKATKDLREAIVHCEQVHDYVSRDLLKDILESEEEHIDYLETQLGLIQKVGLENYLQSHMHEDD

SMILES	MIC [1, 6] [µM]	MIC [2, 7] [µM]	MIC [3, 8] [µM]	IC50 [4, 9] [µM]	MIC ([1]; 20 h) [µM]	MIC ([2]; 20 h) [µM]	MIC ([3]; 20 h) [µM]	IC50 ([4]; planktonic cells) [µM]	Kd [5] [µM]	IC50, P. aeruginosa PAO1 ([4]; planktonic cells)
O=C1NC(=O)c2c(NCc3ccccc3O)cccc21 [Analog 11, 4-((2-Hydroxybenzyl)amino)isoindoline-1,3-dione]	80 (≈ 21.5 µg/mL)	80 (≈ 21.5 µg/mL)	120 (≈ 32.2 µg/mL)	178 ± 14	–	–	–	–	–	–
O=C1NC(=O)c2c(NCc3ccc(Br)cc3O)cccc21 [EB-5-61]	–	–	–	–	50 (≈ 17.4 µg/mL)	50 (≈ 17.4 µg/mL)	50 (≈ 17.4 µg/mL)	24 ± 2	13 ± 3	–
Cc1ccc(CNc2cccc3c2C(=O)NC3=O)c(O)c1 [EB-5-69]	–	–	–	–	80 (≈ 22.6 µg/mL)	80 (≈ 22.6 µg/mL)	80 (≈ 22.6 µg/mL)	–	45 ± 6	Not active
Cc1cccc(CNc2cccc3c2C(=O)NC3=O)c1O [EB-5-70]	–	–	–	–	100 (≈ 28.2 µg/mL)	100 (≈ 28.2 µg/mL)	100 (≈ 28.2 µg/mL)	–	17 ± 2	Not active
O=C1NC(=O)c2c(NCc3c(O)cccc3F)cccc21 [EB-5-71]	–	–	–	–	75 (≈ 21.5 µg/mL)	75 (≈ 21.5 µg/mL)	75 (≈ 21.5 µg/mL)	80 ± 10	56 ± 10	–
O=C1NC(=O)c2c(NCc3c(O)cccc3Br)cccc21 [EB-5-72]	–	–	–	–	> 60	> 60	> 60	32 ± 5	15 ± 3	–
O=C1NC(=O)c2c(NCc3cccc(Br)c3O)cccc21 [EB-5-73]	–	–	–	–	> 40	> 40	40 (≈ 13.9 µg/mL)	–	7 ± 2	Not active
O=C1NC(=O)c2c(NCc3cccc(F)c3O)cccc21 [EB-5-80]	–	–	–	–	> 100	> 100	> 100	–	49 ± 7	Not active
O=C1NC(=O)c2c(NCc3cc(F)ccc3O)cccc21 [JAG-5-7]	60 (≈ 17.2 µg/mL)	60 (≈ 17.2 µg/mL)	60 (≈ 17.2 µg/mL)	83 ± 19	–	–	–	–	24 ± 6	–
O=C1NC(=O)c2c(NCc3cc(Cl)ccc3O)cccc21 [KM-5-25, 4-((5-Chloro-2-hydroxybenzyl)amino)isoindoline-1,3-dione]	–	–	–	–	30 (≈ 9.08 µg/mL)	40 (≈ 12.1 µg/mL)	40 (≈ 12.1 µg/mL)	31 ± 7	10 ± 2	–
O=C1NC(=O)c2c(NCc3c(O)cccc3Cl)cccc21 [KM-5-29]	–	–	–	–	> 60	> 60	> 60	36 ± 5	18 ± 3	–
O=C1NC(=O)c2c(NCc3cccc(Cl)c3O)cccc21 [KM-5-30]	–	–	–	–	> 80	> 80	> 80	57 ± 2	11 ± 3	–
O=C1NC(=O)c2c(NCc3cc(Br)ccc3O)cccc21 [KM-5-35, 4-((5-Bromo-2-hydroxybenzyl)amino)isoindoline-1,3-dione]	–	–	–	–	30 (≈ 10.4 µg/mL)	40 (≈ 13.9 µg/mL)	30 (≈ 10.4 µg/mL)	27 ± 3	9 ± 3	–
O=C1NC(=O)c2c(NCc3cc(Cl)ccc3O)ccc(Br)c21 [SB-16-51]	–	–	–	–	15 (≈ 5.72 µg/mL)	10 (≈ 3.82 µg/mL)	15 (≈ 5.72 µg/mL)	18 ± 3	13 ± 2	–
CC(C)(C)c1ccc(O)c(CNc2cccc3c2C(=O)NC3=O)c1 [SB-16-53]	30 (≈ 9.73 µg/mL)	30 (≈ 9.73 µg/mL)	30 (≈ 9.73 µg/mL)	12 ± 6	–	–	–	–	1 ± 0.2	–
O=C1NC(=O)c2c(NCc3cc(F)ccc3O)ccc(Br)c21 [SB-16-67]	–	–	–	–	30 (≈ 11 µg/mL)	40 (≈ 14.6 µg/mL)	20 (≈ 7.3 µg/mL)	> 40	7 ± 1	–
Cc1cc(Br)cc(CNc2cccc3c2C(=O)NC3=O)c1O [SB-16-106]	–	–	–	–	30 (≈ 10.8 µg/mL)	20 (≈ 7.22 µg/mL)	15 (≈ 5.42 µg/mL)	14 ± 4	3 ± 1	–
O=C1NC(=O)c2c(NCc3cc(Br)c(F)cc3O)cccc21 [SB-16-112]	–	–	–	–	20 (≈ 7.3 µg/mL)	20 (≈ 7.3 µg/mL)	20 (≈ 7.3 µg/mL)	14 ± 3	2 ± 0.6	–
O=C1NC(=O)c2c(NCc3cc(Br)cc(F)c3O)cccc21 [SB-16-118]	–	–	–	–	30 (≈ 11 µg/mL)	20 (≈ 7.3 µg/mL)	30 (≈ 11 µg/mL)	25 ± 8	4 ± 0.3	–
O=C1NC(=O)c2c(NCc3cc(Br)ccc3O)ccc(Cl)c21 [SB-16-124]	–	–	–	–	20 (≈ 7.63 µg/mL)	20 (≈ 7.63 µg/mL)	20 (≈ 7.63 µg/mL)	17 ± 2	11 ± 1	–
O=C1NC(=O)c2c(NCc3cc(Br)cc(O)c3O)cccc21 [SB-16-136]	–	–	–	–	30 (≈ 10.9 µg/mL)	40 (≈ 14.5 µg/mL)	30 (≈ 10.9 µg/mL)	20 ± 5	7 ± 1	–
O=C1NC(=O)c2c(NCc3cc(Br)c(O)cc3O)cccc21 [SB-16-137]	–	–	–	–	> 80	> 80	> 80	37 ± 4	9 ± 0.4	–
Cc1cc(Cl)cc(CNc2cccc3c2C(=O)NC3=O)c1O [SB-16-156]	–	–	–	–	> 40	> 40	> 40	21 ± 5	7 ± 2	–
